{"source": "patent US7056534B2", "about": "“Coated potassium chloride granules and tablets” (Upsher-Smith Laboratories, Inc., priority 2001, dated 2006)", "origin": "cited, not measured here", "note": "Like-named read-outs stand apart in the source and are kept apart here.", "data": [{"smiles": "[Cl-].[K+]", "note": "[Potassium chloride]", "values": [{"measurement": "Solubility", "setting": "acetone", "result": "insoluble"}, {"measurement": "Volume of solvent in which 1 gram dissolves", "setting": "boiling water", "result": 1.8, "unit": "mL"}, {"measurement": "Solubility", "setting": "ether", "result": "insoluble"}, {"measurement": "Volume of solvent in which 1 gram dissolves", "setting": "ethyl alcohol", "result": "about 250 ml"}, {"measurement": "Volume of solvent in which 1 gram dissolves", "setting": "glycerol", "result": 14, "unit": "mL"}, {"measurement": "Volume of solvent in which 1 gram dissolves", "setting": "water", "result": 2.8, "unit": "mL"}]}]}
